Laboratory results as given in US9597407B2, “Targeted antimicrobial moieties” (C3 Jian, Inc., priority 2009, dated 2017).
“Also recorded” adds a separate entry of the source. Ends that are not written are not given here.

Tests used:
bacteria = assay: Binding of targeting peptides to microorganisms (Table 3); details: peptide binding in aqueous buffers that varied depending on peptide solubility; preferably 1x PBS
microorganisms [1] = assay: Morphology, biofilm and growth disruption by peptides (Table 5); type: cell-based; set-up: key: A: Peptide aggregates; B: Less hyphal formation; Clumps; Diffuse clumps and small polyps; F: Diffuse growth; H: Thin; I: Growth inhibition; Microcolony formation; Rippled; Small polyps; Thick; W: Halo formation on top, microlonies on bottom
From the text: In certain embodiments peptides that induce alterations in phenotype or other biological activities can also be used as antimicrobial effector moieties.

microorganisms [2] = assay: Peptide activities: binding, antimicrobial, growth or phenotype altering (Table 8)
From the text: In certain embodiments, peptides described herein can have multiple activities. Thus for example, a peptide can have both binding/targeting activity and antimicrobial activity. Such peptides can be used, e.g., in a chimeric construct, for any or all of these properties. Thus, for example, a peptide designated “B” in Table 8 can be used as a targeting peptide. If it is also designated G or M it can also be used for antimicrobial activity.

Substance	Target(s) (microorganisms bound by the targeting peptide) (bacteria)	Organism, effect (morphology, biofilm and growth disruption) (microorganisms [1]; E. coli)	Organism, effect (morphology, biofilm and growth disruption) (microorganisms [1]; E. faecalis)	Organism, effect (morphology, biofilm and growth disruption) (microorganisms [1]; MRSA)	Organism, effect (morphology, biofilm and growth disruption) (microorganisms [1]; S. epidermidis)	Organism, effect (morphology, biofilm and growth disruption) (microorganisms [1]; S. pneumoniae)	Activities (microorganisms [2])	Organism, effect (morphology, biofilm and growth disruption) (microorganisms [1]; C. albicans)	Organism, effect (morphology, biofilm and growth disruption) (microorganisms [1]; C. jeikeium)	Organism, effect (morphology, biofilm and growth disruption) (microorganisms [1]; B. subtilis)	Organism, effect (morphology, biofilm and growth disruption) (microorganisms [1]; C. jejuni)
PF-518 (SFYSKYSRYIDNLAGAIFLFF; Peptide with targeting and/or antimicrobial activity)	S. epidermidis and E. coli and P. aeruginosa and C. albicans and MRSA and S. pneumoniae and E. faecalis	E. coli (R)	E. faecalis (C)	MRSA (C)	S. epidermidis (C)	S. pneumoniae (M)	G B				
PF-519 (YLVYSGVLATAAAF-NH2)	M. luteus; also recorded: E. faecalis; also recorded: C. jeikeium	E. coli (R)	E. faecalis (C)	MRSA (C)		S. pneumoniae (S)	G B				
PF-528 (LVDVVVLIRRHLPKSCS-NH2)	S. epidermidis and P. aeruginosa and C. albicans and MRSA and S. pneumoniae and E. faecalis	E. coli (H)		MRSA (H)	S. epidermidis (H)	S. pneumoniae (R)	G B	C. albicans (C)			
PF-540 (KSILILIKVIFIGQTTIIL; Peptide with targeting and/or antimicrobial activity)	C. albicans	E. coli (R)		MRSA (H)	S. epidermidis (H)	S. pneumoniae (R)	G B				
PF-542 (KKDNPSLNDQDKNAVLNLLALAK; Peptide with targeting and/or antimicrobial activity)	C. jeikeium					S. pneumoniae (H)	G B				
PF-546 (PIIAPTIKTQIQ; Peptide with targeting and/or antimicrobial activity)	S. epidermidis; also recorded: E. coli; also recorded: C. albicans; also recorded: S. pneumoniae; also recorded: E. faecalis; also recorded: C. jeikeium	E. coli (R)	E. faecalis (D)	MRSA (D)	S. epidermidis (D)	S. pneumoniae (D)	G B		C. jeikeium (D)		
PF-549 (TGIGPIARPIEHGLDS; Peptide with targeting and/or antimicrobial activity)	E. coli; also recorded: C. albicans; also recorded: S. pneumoniae; also recorded: C. jeikeium			MRSA (C)			G B			B. subtilis (D)	
PF-550 (STENGWQEFESYADVGVDPRRYVPL; Peptide with targeting and/or antimicrobial activity)	S. pneumoniae						G B			B. subtilis (D)	
PF-551 (QVKEKRREIELQFRDAEKKLEASVQAE; Peptide with targeting and/or antimicrobial activity)	S. pneumoniae			MRSA (C)			G B				
PF-552 (ELDKADAALGPAKNLAPLDVINRS; Peptide with targeting and/or antimicrobial activity)	S. pneumoniae						G B			B. subtilis (D)	
PF-553 (LTIVGNALQQKNQKLLLNQKKITSLG; Peptide with targeting and/or antimicrobial activity)	S. epidermidis and E. coli and P. aeruginosa and C. albicans and MRSA and S. pneumoniae and C. jeikeium			MRSA (M)		S. pneumoniae (R)	G B		C. jeikeium (R)	B. subtilis (D)	
PF-554 (AKNFLTRTAEEIGEQAVREGNINGP; Peptide with targeting and/or antimicrobial activity)	S. pneumoniae						G B			B. subtilis (D)	
PF-557 (AANKAREQAAAEAKRKAEEQAR; Peptide with targeting and/or antimicrobial activity)	S. pneumoniae						G B			B. subtilis (D)	
PF-558 (ADAPPPLIVRYS; Peptide with targeting and/or antimicrobial activity)	S. epidermidis; also recorded: E. coli; also recorded: C. albicans; also recorded: C. jeikeium; also recorded: C. jejuni			MRSA (C)	S. epidermidis (M)	S. pneumoniae (R)	G B			B. subtilis (D)	C. jejuni (H)
PF-559 (SRPGKPGGVSIDVSRDRQDILSNYP; Peptide with targeting and/or antimicrobial activity)	S. epidermidis; also recorded: M. luteus; also recorded: C. albicans; also recorded: C. jeikeium; also recorded: C. jejuni						G B			B. subtilis (C)	C. jejuni (A)
PF-560 (FGNPFRGFTLAMEADFKKRK; Peptide with targeting and/or antimicrobial activity)	S. epidermidis; also recorded: M. luteus; also recorded: E. coli; also recorded: S. pneumoniae; also recorded: C. jeikeium; also recorded: C. jejuni			MRSA (C)		S. pneumoniae (R)	G B			B. subtilis (D)	C. jejuni (A)
PF-563 (RPELDNELDVVQNSASLDKLQASYN; Peptide with targeting and/or antimicrobial activity)	S. epidermidis; also recorded: M. luteus; also recorded: C. jeikeium					S. pneumoniae (H)	G B			B. subtilis (D)	C. jejuni (H)
